Tested on: P. falciparum 3D7 growth, pLDH absorbance
Assay: blood-stage malaria parasite growth potency – strain 3D7, dose response (AID 2305)

Structure (SMILES) | IC50 [nM]
O=C(CCc1cccnc1)Nc1ccc(-c2cccc(-c3nc4ccc(F)cc4[nH]3)c2)cc1 | 920
O=C(c1cc(-c2ccccc2O)on1)N1CCN(C(c2ccccc2)c2ccccc2)CC1 | 340
Cc1ccc2oc3cc(-c4nn[nH]n4)ccc3c(=O)c2c1 | 90
CS(=O)(=O)CCNc1nccc(N2CCc3ncnc(Nc4ccc(OCc5cccc(F)c5)c(Cl)c4)c3C2)n1 | 130
COc1cc(Cc2cnc(N)nc2N)ccc1OCc1ccc(-c2ccccc2C#N)cc1 | 940
O=C(O)C[C@H](NC(=O)CCCNC(=O)c1cccc(-c2ccc(Cl)c(Cl)c2)c1)C(=O)O | 880
CN(c1cc(NC(=O)c2ccc(F)cc2)ccn1)C1CCN(Cc2ccc(C#N)cc2)CC1 | 1510
COc1ccc(CN2CCC(CNCCc3ccccc3Oc3ccccc3)CC2)cc1 | 1100
COc1ccc(OCC(=O)Nc2nc(-c3ccc(OC)cc3)c(C)s2)cc1 | 1950
Cc1cccc2[nH]c(-c3ccc(-c4cccc(NC(=O)CN5CCN(C)CC5)c4)s3)nc12 | 830
COc1cc(C(=O)N2CCOC(CCN3CCc4c(c5ccccc5n4C)C3)(c3ccc(Cl)c(Cl)c3)C2)cc(OC)c1OC (stereo unspecified) | 360
NC(N)=NC(=O)Nc1cc(Cl)c(Br)c(Cl)c1 | 470
Cc1ccc(S(=O)(=O)n2nccc2-c2c(-c3ccc(Cl)cc3)noc2C)cc1 | 810
O=C(Nc1ccc(S(=O)(=O)NCCCN2CCOCC2)cc1)c1cc(-c2ccccc2)n[nH]1 | 770
O=C(N[C@@H](Cc1ccccc1)C(=O)NCCN1CCCCC1)c1ccc(O)c(-c2ccc(Cl)c(Cl)c2)c1 | 1520
CN(C)c1cccc(CCNCCc2c[nH]c3ccc(Cl)cc23)c1 | 440
CCNc1cc(C)nc(Nc2ccc(NC(=O)c3c(F)cccc3Cl)cc2)n1 | 1120
NC(=O)Nc1ccc2c(Nc3ccc(OCc4ccccc4)cc3)ncnc2c1 | 1260
COc1ccc(NC(=O)Nc2cccc(-c3ccncc3)c2)cc1N1CCN(C)CC1 | 550
COc1ccc(CNC(=O)c2cnc3c(O)cccc3c2Nc2cccc(NC(=O)c3ccc(Cl)c(Cl)c3)c2)cc1 | 600
CC(C)N1CCN(c2ccc(OCCCN3CCN(c4cccc(Cl)c4Cl)CC3)c(C(F)(F)F)c2)CC1 | 810
COc1cc(C=NNc2ccnc3cc(Cl)ccc23)ccc1O | 130
COc1ccc(NC(=O)Nc2cc(C)nc3ccccc23)cc1Cl | 690
CCc1c[nH]c2c(N3CCCS3(=O)=O)cc(C(=O)N[C@@H](Cc3ccccc3)[C@H](O)CNC(C)(C)c3cccc(C(F)(F)F)c3)cc12 | 230

Structure (SMILES) | IC50 [nM]
CN1CCN(c2nc(NCCc3ccc(O)cc3)nc(NCc3ccccc3-c3ccc(C(F)(F)F)cc3)n2)CC1 | 970
OCCN1CCN(Cc2cccc(-c3ccc(-c4nc5ccc(C(F)(F)F)cc5[nH]4)cc3)c2)CC1 | 560
CNC(=O)c1cc(Nc2nnc(-c3ccc(C)c(S(=O)(=O)NC4CCCCC4)c3)c3ccccc23)ccc1OC | 900
CCC(C)(C)NC(=O)C(c1cccc(OC)c1)N(C(=O)CNC(=O)c1cccs1)c1ccc2c(c1)OCCO2 (stereo unspecified) | 830
CN1CCC(c2ccc(NC(=O)c3ccc(-c4cccc(C(F)(F)F)c4)o3)cc2)CC1 | 1130
COc1ccc2nccc(N3CCN(CCNCc4ccc5c(n4)NC(=O)CO5)CC3)c2c1 | 1160
Cc1nc2c(Nc3nc(-c4ccncc4)cs3)ncnc2n1-c1ccccc1Cl | 180
CCCCCCN1CCC(NCc2cccc3ccccc23)CC1 | 810
COc1ccc(-c2nc(NC(=O)CS(=O)(=O)c3ccc(C)cc3)sc2C)cc1 | 400
CC(C)(C)c1ccc2nc(-c3ccc(C(=O)NCc4cccc(C(F)(F)F)c4)cc3)[nH]c2c1 | 730
O=C(/C=C/c1ccc(Cl)c(Cl)c1)NCCCCCN1CCC(c2c[nH]c3cc(O)ccc23)CC1 | 750
CC(=O)c1ccc(-n2ccnc2)cc1 | 850
CC(=O)N(C)C1CCN(Cc2cccc(-c3ccc(-c4nc5ccc(F)cc5[nH]4)cc3)c2)C1 (stereo unspecified) | 960
CCN(CC)CCCOc1ccc(Nc2nccc(-c3c(-c4cccc(NC(=O)c5c(F)cccc5F)c4)nn4ccccc34)n2)cc1F | 410
N#Cc1ccc2c(c1)CCN(CCC1CCC(NC(=O)/C=C/c3ccc4[nH]ccc4c3)CC1)CC2 (stereo unspecified) | 1060
COc1ccccc1C(=O)Nc1cccc(N2CCC(NCc3ccc(-n4cccn4)cc3)CC2)c1 | 1190
CCCc1cn2c3c(cc(C(=O)N[C@@H](Cc4ccccc4)[C@H](O)CNC4CCOCC4)cc13)N(C)S(=O)(=O)CC2 | 50
COc1cc(NCCCNCC2c3ccccc3Oc3ccccc32)nc2ccccc12 | 330
CC(=O)Nc1ccc(CN2CCC(CNC(=O)c3cc(-c4cccc(C(F)(F)F)c4)cs3)C2)cc1 (stereo unspecified) | 1100
COc1ccccc1C1CC(c2ccc(C)cc2)=NN1C(=O)c1ccccc1 (stereo unspecified) | 890
O=C(Nc1cccc(C(F)(F)F)c1)c1cccc2[nH]c(C(F)(F)F)nc12 | 640
COc1ccc(-n2ccnc2SCC(=O)Nc2cc(C(F)(F)F)ccc2Cl)c(OC)c1 | 40
CCOc1cc(CC)ccc1C1CCN(CCN2CCC(NC(=O)c3ccc(-c4ccc(C#N)cc4)cc3)CC2)CC1 | 610
CN(C)c1ccc(CN2CCC(NC(=O)c3ccc(-c4cccc(C(F)(F)F)c4)s3)CC2)cc1 | 1150

Structure (SMILES) | IC50 [nM]
CCCCCCn1c(Sc2ccc(C#N)c([N+](=O)[O-])c2)nnc1-c1ccc(Cl)cc1 | 830
CC(=O)Nc1ccc(C(=O)Nc2ccc(-c3cccc(-c4nc5ccccc5[nH]4)c3)cc2)cn1 | 240
O=C1c2cc(I)ccc2SC1c1ccccc1 (stereo unspecified) | 820
O=C(Nc1ccc(C(F)(F)F)cc1)Nc1cccc([N+](=O)[O-])c1 | 870
O=C(NC1CCN(CCN2CCC(c3cn(CCO)c4ccccc34)CC2)CC1)c1ccc(-c2ccc(C(F)(F)F)cc2)cc1 | 740
CCCCCCN(CCCCCC)CCCCNc1c2ccc(Cl)cc2nc2ccc(OC)cc12 | 540
CS(=O)(=O)Nc1ccc2[nH]cc(C3CCN(CC4CCC(NC(=O)/C=C/c5ccccc5Cl)CC4)CC3)c2c1 (stereo unspecified) | 790
O=C(Nc1ccc2c(c1)OCO2)c1cc(-c2cccnc2)nc2ccc(Cl)cc12 | 520
O=C(Nc1cc(C(F)(F)F)cc(C(F)(F)F)c1)c1cc(Cl)ccc1O | 1310
O=C(Oc1ccc(Cl)cc1C(=O)Nc1ccc([N+](=O)[O-])cc1Cl)c1ccccc1 | 910
Cc1[nH]c2ccc(O)cc2c1C1CCN(CCCCCNC(=O)/C=C/c2ccc(Cl)c(Cl)c2)CC1 | 770
CCCCCCN1CCCN(Cc2ccc(C(=O)Nc3ccc(F)c(F)c3)cc2)CC1 | 610
COc1cccc(C2(NC[C@@H](O)[C@H](Cc3ccccc3)NC(=O)c3ccccc3)CCCCC2)c1 | 730
O=C(N[C@@H](CC1CCCCC1)C(=O)NC1CCCCC1)c1ccc(O)c(-c2cccc(C(F)(F)F)c2)c1 | 750
COCCNCc1ncsc1-c1ccc2c(Nc3ccc(Oc4ccccc4)cc3)ccnc2c1 | 900
O=[N+]([O-])c1cccc(CNC2CCN(Cc3ccc(Cl)c(Cl)c3)CC2)c1 | 460
C[C@]12CC3CC(Nc4nc(N5CCOCC5)nc5ccccc45)(C1)C[C@@](C)(C3)C2 | 940
CN(CCCCCN1CCC(NC(=O)Nc2ccc(Oc3ccccc3)cc2)C1)C(=O)/C=C/c1ccc(Cl)c(Cl)c1 (stereo unspecified) | 420
CCCCCCN1CCC(CNCc2cccc(Cl)c2)CC1 | 1220
COc1ccc(C2C(C(=O)OC3CCCC3)=C(C)NC3=C2C(=O)CCC3)cc1Br (stereo unspecified) | 590
CN(C)CCNc1nccc(N2CCc3ncnc(Nc4ccc(OCc5cccc(F)c5)c(Cl)c4)c3C2)n1 | 140
c1ccc(COc2ccccc2COc2ccccc2-c2ccc3cccnc3n2)cc1 | 920
COc1cc(C)nc2ccc(NC(=O)COCC(=O)Nc3ccc4nc(C)cc(OC)c4c3)cc12 | 920
Cn1ccnc1CNC(=O)c1ccc(-c2cccc(-c3nc4ccc(C(F)(F)F)cc4[nH]3)c2)cc1 | 720

Structure (SMILES) | IC50 [nM]
O=C(NCCc1ccc(F)cc1)c1ccc(N2CCN(c3ccncc3)CC2)nc1 | 1420
Fc1ccc2nc(-c3ccc(-c4ccc(CNCC5CCCO5)cc4)s3)[nH]c2c1 (stereo unspecified) | 600
O=C(C=Cc1ccc(Cl)c(Cl)c1)NCCCCCN1CCC(CCCNC(=O)[C@@H]2C[C@H]2c2ccccc2)CC1 | 770
COc1cccc(NC(=O)Nc2c(-c3cccc(C(F)(F)F)c3)c(C(F)(F)F)nn2C)c1 | 910
COc1cc(NC(=O)C(c2ccc(Cl)cc2)C(C)C)cc(OC)c1OC (stereo unspecified) | 530
Fc1ccc2nc(-c3cccc(-c4cccc(CNCc5ccccc5)c4)c3)[nH]c2c1 | 280
Clc1cccc(C23N=C(Nc4nc5ccccc5[nH]4)NC2(c2ccccc2)NC(Nc2nc4ccccc4[nH]2)=N3)c1 (stereo unspecified) | 520
Cc1cn(CC(=O)Nc2cccc(-c3cccc(-c4nc5c(C)cccc5[nH]4)c3)c2)c(=O)[nH]c1=O | 580
CCOc1ccc(S(=O)(=O)N(C)c2ccc(OCC(=O)Nc3nccs3)cc2)cc1 | 960
Cc1ccc(NC(=O)c2ccc3ncccc3c2)cc1OC1CCN(Cc2ccco2)C1 (stereo unspecified) | 1250
Cc1ncc([N+](=O)[O-])n1CCOC(=O)NC(NCC1COc2ccccc2O1)C(Cl)(Cl)Cl (stereo unspecified) | 220
CC(C)CNCc1cccc(-c2cccc(CN(C(=O)NC3CCCCC3)C3CCN(Cc4ccccc4)CC3)c2)c1 | 820
Cc1cc(NN=Cc2ccc(Cl)cc2)c2cccc(C)c2n1 | 720
CC(C)NCc1ccc(-c2ccc(NS(=O)(=O)c3cccc4cccnc34)cc2)cc1 | 810
O=C(Nc1cc(F)cc(F)c1)N1CCOC(CCN2CCC3(CCc4ccccc43)CC2)(c2ccc(Cl)c(Cl)c2)C1 (stereo unspecified) | 280
O=C(Cn1c(CCc2cccc(F)c2F)cc(=O)c2ccccc21)N(Cc1ccc(-c2ccc(C(F)(F)F)cc2)cc1)C1CCN(CCN2CCOCC2)CC1 | 720
O=C(/C=C/c1ccc(Cl)c(Cl)c1)NCCCCCN1CCC(C(=O)Nc2ccc(F)c(Cl)c2)CC1 | 650
NC(N)=NCCN(Cc1ccccc1)c1ccc(Cl)cc1 | 50
COc1cc(NC(=O)c2ccc3c(=O)n(Cc4ccccc4)c(=S)[nH]c3c2)cc(OC)c1OC | 740
COc1cc(NC(=O)c2c(-c3c(Cl)cccc3Cl)noc2C)c(OC)cc1Cl | 920
Cc1ccc(C(=O)Cn2nc(-c3ccc(C)c(S(=O)(=O)N4CCCCC4)c3)ccc2=O)cc1 | 330
O=C(O)c1cccc2c(-c3ccncc3)cccc12 | 940
N#Cc1cccc(Nc2nccc(NCC(O)c3ccc(C(F)(F)F)cc3)n2)c1 (stereo unspecified) | 560
COc1cc(-c2cc(-c3ccc(OCCN(C)C)cc3)[nH]c2-c2ccncc2)ccc1Cl | 710
